Assay results as given in patent publication US5416070A, “Composition for macrophage activation” (ImmunoTherapeutics, Inc., priority 1990, dated 1995).

What was measured:
[1] = tested on: Meth A sarcoma; test: Effect with lipopolysaccharide on growth of Meth A sarcoma in mice; assay type: in vivo
Experimental: BALB/C mice 7-8 weeks of age were injected subcutaneously with Meth A sarcoma (1×10^6 cells) and treated intravenously on day 8 with 10 μg of lipopolysaccharide (LPS) from Salmonella typhimurium ReG 30/21 alone or combined with 1 or 10 μg of MDP or Compound IIA. Tumor growth was compared on day 6 following therapy.
The animals were followed and the percent cured determined at 60 days post-injection.

[2] = tested on: human peripheral blood monocytes; test: Activation of monocytes in vitro measured by production of Interleukin-1-beta (ELISA); assay type: cell-based; details: 24 Hours
Experimental: Human peripheral blood monocytes were isolated by density gradient centrifugation as noted in Example 13. The cell number was adjusted to 5×10^5 cells per ml in RPM 1640 media containing 5% human AB negative serum. One ml containing 5×10^5 cells were placed in individual wells of 24-well Plastek tissue culture plate. Various drugs in a volume of 0.5 ml were added at time zero. The compounds were also formulated in liposomes as described in Example 10, and added in a volume of 0.5 ml to individual wells of a 24-well Plastek tissue culture plate. The cells were incubated at 37° C. in a 5% CO2 atmosphere. Aliquots (0.1 ml) of the supernatant were removed at 24 hours and frozen at -20° C. These samples were subsequently assayed for TNF as described in Example 33 and Interleukin-1-beta (IL-1β) using a commercially available ELISA kit from Cistron (Pine Brook, N.J.).

[3] = 1.0 μg combined with 10 μg LPS i.v. on day 8
[4] = 10 μg combined with 10 μg LPS i.v. on day 8

## CCCCCCCCCCCCCCCC(=O)OCC(COC(=O)C(C)NC(=O)CCC(NC(=O)C(C)NC(=O)C(C)OC1C(NC(C)=O)C(O)OC(CO)C1OC1OC(CO)C(O)C(O)C1NC(C)=O)C(N)=O)OC(=O)CCCCCCCCCCCCCCC [Compound IIA, 4-O-[2-acetamido-2-deoxy-β-D-glucopyranosyl]-2-acetamido-2-deoxy-3-O-[D-2-propanoyl-L-alanyl-D-isoglutaminyl-L-alanyl-1,2-dipalmitoyl-sn-glycerol]-D-glucopyranose]
[1]; [3]
  Complete Regression at Day 60: 50%
  Percent Change in Average Tumor Area 6 Days Post Treatment: -56%
[1]; [4]
  Complete Regression at Day 60: 100%
  Percent Change in Average Tumor Area 6 Days Post Treatment: -67%
[1]; Table 3, Meth A sarcoma
  interaction with LPS: synergistic activity
[2]; Table 8, Experiment 1, 0.01 μg/ml
  IL-1-beta (pg/ml) at given Concentration of Compound: 260 pg/mL
[2]; Table 8, Experiment 1, 0.1 μg/ml
  IL-1-beta (pg/ml) at given Concentration of Compound: 220 pg/mL
[2]; Table 8, Experiment 1, 1.0 μg/ml
  IL-1-beta (pg/ml) at given Concentration of Compound: 244 pg/mL
[2]; Table 8, Experiment 1, 10.0 μg/ml
  IL-1-beta (pg/ml) at given Concentration of Compound: 264 pg/mL
